According to patent US20110178053A1, “AZACARBOLINE DERIVATIVES, PREPARATION METHOD THEREOF AND THERAPEUTIC USE OF SAME” (SANOFI-AVENTIS, priority 2008, published 2011):
Read-outs that look alike come from different tables or passages of the source.

Tests used:
MOLM-13 = experiment: Cell viability assay (CellTiter-Blue), MOLM-13; type: cell-based; settings: Homo sapiens
From the text: (§1) The representative compounds of the invention are also screened as regards their effects on cell proliferation and viability using a variety of human tumour cell lines, which are representative of various pathological indications. These cell lines include: • Models of haematological cancers: • TF-1 (acute myelogenic leukaemia; AML M6 at the time of diagnosis); • KG-1 (AML; erythroleukaemia evolving into AML); • KG-1a (AML; sub-clone derived from immature KG-1); • EOL-1 (AML; eosinophilic leukaemia); • PL-21 (AML; M3); • ML-2 (AML; T-NHL evolving into T-ALL evolving into AML M4); • HL-60 (AML, M3); • Kasumi-1 (AML); • GDM-1 (AML); • K-562 (CML—chronic myelogenic leukaemia; blastic crisis); • JURL-MK1 (CML; blastic crisis); • DND-41 (T-ALL—-cell acute lymphoblastic leukaemia); • Jurkat (T-ALL); NALM-6 (B-ALL—B-cell ALL); • CEM (ALL; lymphosarcoma evolving into ALL); • Jeko-1 (B-NHL—B-cell non-Hodgkin lymphoma; mantle-cell lymphoma derived from a variant with large cells as a leukaemic transformation); • WSU-DLCL2 (B-NHL; large B-cell diffuse lymphoma); • RL (B-NHL; undifferentiated diffuse); • OCI-Ly10 (B-NHL); • DoHH-2 (B-NHL); • RPMI-8226 (MM—multiple myeloma); • JVM-2 (B-CLL—B-cell chronic lymphocytic leukaemia); and • JVM-3 (B-CLL) • MV4-11 (AML) • MOLM13 (AML). • Solid tumour models: • HCT-116 (bowel cancer); • HT-29 (bowel cancer); • HC-15 (bowel cancer); • H460 (lung cancer; non-small-cell lung cancer); • A375 (melanoma); • B16F10 (melanoma); • MDA-A1 (breast cancer); • MDA-MB231 (breast cancer); • MDA-MB231 adr (breast cancer); • PANC-1 (pancreatic cancer); and • PC-3 (prostate cancer).
(§2) In order to measure the viability, the tumour cells are incubated in a 96-well or 384-well format for 48, 72 or 96 hours, preferably 72 hours, with a compound of the invention at dilutions of a factor 3 with, in general, nine doses in total, the highest dose being equal to 10 μM or 30 μM. The cell viability is evaluated by adding CellTiter-Blue® (Promega, Madison, Wis., United States) for 4 hours and end-point readings are taken using a SpectraMax Genmini EM (Molecular Devices, Sunnyvale, Calif., United States). The CellTiter-Blue® cell viability assay measures the ability of the cells in culture to reduce resazurin to resorufin, the fluorescence signal intensity being directly proportional to the number of live cells.

MV4-11 = experiment: Cell viability assay (CellTiter-Blue), MV4-11; type: cell-based; settings: Homo sapiens
From the text: as §1, §2

Pim-3 = molecular target: T1, Pim-3 (Homo sapiens, UniProt Q86V86); experiment: TR-FRET assay, Pim-3 kinase (phosphorylation of Bad Ser112); type: biochemical; settings: TR-FRET; ATP 40 μM; read-out: IC50 Pim3
T1 construct: His6-labelled recombinant full-length human Pim-1, Pim-2 or Pim-3 protein; His6; made in house
Method in brief: (§3)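 For each of Pim-1, Pim-2 and Pim-3 (His6-tagged full-length human), compounds were titrated over 10 concentrations in duplicate, typically from 30 μM, with ATP at 40 μM, equal to apparent KM. Bad Ser112 phosphorylation was read as the 665/615 nm TR-FRET ratio and IC50 fitted by 4-parameter logistic model.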

PLK1 = PLK1 (Homo sapiens, UniProt P53350); experiment: PLK1 biochemical inhibition
EOL-1 = experiment: Cell viability assay (CellTiter-Blue), EOL-1; type: cell-based; settings: Homo sapiens, EOL1, read-out: EC50 EOL-1 μM (lymphoma)
From the text: as §1, §2

Pim-2 = molecular target: T2, Pim-2 (Homo sapiens, UniProt Q9P1W9); experiment: TR-FRET assay, Pim-2 kinase (phosphorylation of Bad Ser112); type: biochemical; settings: TR-FRET; ATP 40 μM; read-out: IC50 Pim2
T2 construct: His6-labelled recombinant full-length human Pim-1, Pim-2 or Pim-3 protein; His6; made in house
Method in brief: as §3

Pim-1 = molecular target: T3, Pim-1 (Homo sapiens, UniProt P11309); experiment: TR-FRET assay, Pim-1 kinase (phosphorylation of Bad Ser112); type: biochemical; settings: TR-FRET; ATP 40 μM; read-out: IC50 Pim1
T3 construct: His6-labelled recombinant full-length human Pim-1, Pim-2 or Pim-3 protein; His6; made in house
Method in brief: as §3

[1] = MOLM-13 cells, cell proliferation/viability, read-out: IC50 MOLM-13 μM (myeloma)
[2] = MV4-11 cells, cell proliferation/viability, read-out: IC50 MV4-11 μM (myeloma)
[3] = EOL-1 cells, cell proliferation/viability

T2 sequence (Q9P1W9 whole entry): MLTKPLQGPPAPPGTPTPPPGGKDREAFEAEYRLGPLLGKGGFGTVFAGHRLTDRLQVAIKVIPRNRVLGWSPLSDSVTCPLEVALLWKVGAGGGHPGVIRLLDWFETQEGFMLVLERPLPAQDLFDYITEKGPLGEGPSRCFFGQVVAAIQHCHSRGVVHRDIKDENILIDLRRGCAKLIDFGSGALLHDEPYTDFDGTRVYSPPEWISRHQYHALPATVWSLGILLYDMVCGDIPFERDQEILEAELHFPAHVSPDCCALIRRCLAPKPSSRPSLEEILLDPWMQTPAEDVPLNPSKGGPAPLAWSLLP
T3 sequence (P11309 whole entry): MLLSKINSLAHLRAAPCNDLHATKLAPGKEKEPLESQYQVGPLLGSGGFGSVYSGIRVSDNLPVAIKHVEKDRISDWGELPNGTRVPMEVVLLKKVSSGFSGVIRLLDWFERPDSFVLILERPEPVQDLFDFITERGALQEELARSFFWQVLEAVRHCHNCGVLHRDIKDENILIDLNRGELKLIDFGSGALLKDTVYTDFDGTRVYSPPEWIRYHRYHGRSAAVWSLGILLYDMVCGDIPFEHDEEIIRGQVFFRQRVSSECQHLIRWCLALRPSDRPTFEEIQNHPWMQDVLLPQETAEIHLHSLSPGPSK
PLK1, sequence (P53350 whole entry, species assumed): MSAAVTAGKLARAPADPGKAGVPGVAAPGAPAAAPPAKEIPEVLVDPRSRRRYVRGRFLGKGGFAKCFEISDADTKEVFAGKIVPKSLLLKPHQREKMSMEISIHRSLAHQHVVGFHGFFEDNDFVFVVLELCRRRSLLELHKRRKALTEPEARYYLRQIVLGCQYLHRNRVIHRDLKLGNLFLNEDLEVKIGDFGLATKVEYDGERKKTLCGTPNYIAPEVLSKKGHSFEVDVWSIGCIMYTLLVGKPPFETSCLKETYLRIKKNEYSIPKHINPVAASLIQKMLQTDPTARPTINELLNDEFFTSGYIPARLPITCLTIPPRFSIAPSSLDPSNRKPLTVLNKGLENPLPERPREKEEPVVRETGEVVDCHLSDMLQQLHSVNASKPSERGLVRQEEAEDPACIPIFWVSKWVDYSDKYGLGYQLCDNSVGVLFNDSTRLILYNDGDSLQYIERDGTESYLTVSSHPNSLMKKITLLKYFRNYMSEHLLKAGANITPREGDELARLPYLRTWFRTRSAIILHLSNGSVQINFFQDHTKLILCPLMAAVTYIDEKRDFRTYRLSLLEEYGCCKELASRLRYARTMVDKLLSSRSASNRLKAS

COc1cnc2[nH]c3cnc(-c4cccnc4)cc3c2c1 [Example 7, 3-methoxy-6-(pyrid-3-yl)-9H-pyrrolo-[2,3-b:5,4-c′]-dipyridine]
IC50 (MOLM-13; [1]): 0.1 to 1 µM
IC50 (MV4-11; [2]): 0.1 to 1 µM
IC50 (Pim-3): 0.001 to 0.1 µM
IC50 (PLK1): 0.1 to 1 µM
EC50 (EOL-1; [3]): 0.1 to 1 µM
IC50 (Pim-2): 0.1 to 1 µM
IC50 (Pim-1): 0.001 to 0.1 µM

COc1ccnc2[nH]c3cnc(-c4cccnc4)cc3c12 [Example 8, 4-methoxy-6-(pyrid-3-yl)-9H-pyrrolo-[2,3-b:5,4-c′]-dipyridine]
IC50 (MOLM-13; [1]): 0.1 to 1 µM
IC50 (MV4-11; [2]): 0.1 to 1 µM
IC50 (Pim-3): 0.1 to 1 µM
IC50 (PLK1): 0.1 to 1 µM
EC50 (EOL-1; [3]): 0.1 to 1 µM
IC50 (Pim-2): 1 to 5 µM
IC50 (Pim-1): 0.001 to 0.1 µM

Fc1cnc2[nH]c3cnc(-c4cccnc4)cc3c2c1N1CCOCC1 [Example 33, 3-fluoro-4-(morpholin-4-yl)-6-(pyrid-3-yl)-9H-pyrrolo[2,3-b:5,4-c′]-dipyridine]
IC50 (MOLM-13; [1]): 0.1 to 1 µM
IC50 (MV4-11; [2]): 1 to 5 µM
IC50 (Pim-3): 0.1 to 1 µM
EC50 (EOL-1; [3]): 0.1 to 1 µM
IC50 (Pim-2): 0.1 to 1 µM
IC50 (Pim-1): 0.001 to 0.1 µM

CN(C)CCCN(c1ccc(-c2c(F)cnc3[nH]c4cnc(-c5cccnc5)cc4c23)cc1)S(C)(=O)=O [Example 49, N-[3-(dimethylamino)propyl]-N-{4-[3-fluoro-6-(pyrid-3-yl)-9H-pyrrolo[2,3-b:5,4-c′]-dipyrid-4-yl]phenyl}methanesulfonamide]
IC50 (MV4-11; [2]): 0.001 to 0.1 µM
IC50 (Pim-3): 0.001 to 0.1 µM
IC50 (PLK1): 0.1 to 1 µM
EC50 (EOL-1; [3]): 0.001 to 0.1 µM
IC50 (Pim-2): 0.001 to 0.1 µM
IC50 (Pim-1): 0.001 to 0.1 µM

CCN1CCN(C(C)(C)C#Cc2c(F)cnc3[nH]c4cnc(-c5cccnc5)cc4c23)CC1 [Example 92, 4-[3-(4-ethylpiperazin-1-yl)-3-methylbut-1-yn-1-yl]-3-fluoro-6-(pyrid-3-yl)-9H-pyrrolo-[2,3-b:5,4-c′]dipyridine]
IC50 (MV4-11; [2]): 1 to 5 µM
IC50 (Pim-3): 0.001 to 0.1 µM
IC50 (PLK1): 0.1 to 1 µM
EC50 (EOL-1; [3]): 0.1 to 1 µM
IC50 (Pim-2): 1 to 5 µM
IC50 (Pim-1): 0.001 to 0.1 µM

CN(C)CCCOc1ccc(-c2c(F)cnc3[nH]c4cnc(-c5cccnc5)cc4c23)cc1 [Example 94, 3-{-4-[3-fluoro-6-(pyrid-3-yl)-9H-pyrrolo[2,3-b:5,4-c′]dipyrid-4-yl]phenoxy}-N,N-dimethylpropan-1-amine]
IC50 (MOLM-13; MOLM-13, read-out: IC50 MOLM-13 μM (myeloma)): 0.1 to 1 µM
IC50 (MV4-11; MV4-11, read-out: IC50 MV4-11 μM (myeloma)): 0.001 to 0.1 µM
IC50 (Pim-3): 0.001 to 0.1 µM
IC50 (PLK1): 0.001 to 0.1 µM
EC50 (EOL-1): 0.001 to 0.1 µM
IC50 (Pim-2): 0.1 to 1 µM
IC50 (Pim-1): 0.001 to 0.1 µM

CN(C)CCOc1ccc(-c2c(F)cnc3[nH]c4cnc(-c5cccnc5)cc4c23)cc1 [Example 96, 2-{4-[3-fluoro-6-(pyrid-3-yl)-9H-pyrrolo[2,3-b:5,4-c′]dipyrid-4-yl]-phenoxy}-N,N-dimethylethanamine]
IC50 (MOLM-13; [1]): 0.1 to 1 µM
IC50 (MV4-11; [2]): 0.1 to 1 µM
IC50 (Pim-3): 0.001 to 0.1 µM
IC50 (PLK1): 0.1 to 1 µM
EC50 (EOL-1; [3]): 0.001 to 0.1 µM
IC50 (Pim-2): 0.1 to 1 µM
IC50 (Pim-1): 0.001 to 0.1 µM

Fc1cnc2[nH]c3cnc(-c4cccnc4)cc3c2c1-c1ccc(OCCN2CCCC2)cc1 [Example 97, 3-fluoro-6-(pyrid-3-yl)-4-{4-[2-(pyrrolidin-1-yl)ethoxy]phenyl}-9H-pyrrolo[2,3-b:5,4-c′]dipyridine]
IC50 (MOLM-13; [1]): 0.1 to 1 µM
IC50 (MV4-11; [2]): 0.1 to 1 µM
IC50 (Pim-3): 0.001 to 0.1 µM
IC50 (PLK1): 0.001 to 0.1 µM
EC50 (EOL-1; [3]): 0.1 to 1 µM
IC50 (Pim-2): 0.1 to 1 µM
IC50 (Pim-1): 0.001 to 0.1 µM

CC(COc1ccc(-c2c(F)cnc3[nH]c4cnc(-c5cccnc5)cc4c23)cc1)CN(C)C (stereo not drawn) [Example 98, 3-{4-[3-fluoro-6-(pyrid-3-yl)-9H-pyrrolo[2,3-b:5,4-c′]dipyrid-4-yl]phenoxy}-N,N,2-trimethylpropan-1-amine]
IC50 (MOLM-13; [1]): 0.1 to 1 µM
IC50 (MV4-11; [2]): 0.1 to 1 µM
IC50 (Pim-3): 0.001 to 0.1 µM
IC50 (PLK1): 0.1 to 1 µM
EC50 (EOL-1; [3]): 0.001 to 0.1 µM
IC50 (Pim-2): 0.001 to 0.1 µM
IC50 (Pim-1): 0.001 to 0.1 µM
